{"source": "patent US6355799B1", "about": "“Substituted benzene compounds, process for their preparation, and herbicidal and defoliant compositions containing them” (ISK Americas Incorporated, priority 1997, dated 2002)", "assay_type_in_all_cases": "in vivo", "key": {"[1]": {"tested_on": "redroot pigweed (Amaranthus retroflexus, AMARE)", "experiment": "Pre-emerge test, greenhouse herbicide activity screening", "conditions": "pre-emerge, rated 14 days after application, 0 = no damage, 100 = complete death", "how_it_was_run": "(§1)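 Plants grown in 10 cm pots of sandy loam mix received acetone-dissolved compounds through a moving flat-fan nozzle. Doses ranged from 15 to 1000 g ai/ha. Pre-emerge pots were seeded one day earlier, post-emerge pots 8–21 days earlier. Fourteen days on, each pot was graded 0–100 for damage.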"}, "[2]": {"tested_on": "velvetleaf (Abutilon theophrasti, ABUTH)", "experiment": "Pre-emerge test, greenhouse herbicide activity screening", "conditions": "pre-emerge, rated 14 days after application, 0 = no damage, 100 = complete death", "how_it_was_run": "as §1"}, "[3]": {"tested_on": "johnsongrass (Sorghum halepense, SORHA)", "experiment": "Pre-emerge test, greenhouse herbicide activity screening", "conditions": "pre-emerge, rated 14 days after application, 0 = no damage, 100 = complete death", "how_it_was_run": "as §1"}, "[4]": {"tested_on": "barnyardgrass (Echinochloa crus-galli, ECHCG)", "experiment": "Pre-emerge test, greenhouse herbicide activity screening", "conditions": "pre-emerge, rated 14 days after application, 0 = no damage, 100 = complete death", "how_it_was_run": "as §1"}, "[5]": {"tested_on": "green foxtail (Setaria viridis, SETVI)", "experiment": "Pre-emerge test, greenhouse herbicide activity screening", "conditions": "pre-emerge, rated 14 days after application, 0 = no damage, 100 = complete death", "how_it_was_run": "as §1"}, "[6]": {"tested_on": "large crabgrass (Digitaria sanguinalis, DIGSA)", "experiment": "Pre-emerge test, greenhouse herbicide activity screening", "conditions": "pre-emerge, rated 14 days after application, 0 = no damage, 100 = complete death", "how_it_was_run": "as §1"}, "[7]": {"tested_on": "lambsquarters (Chenopodium album, CHEAL)", "experiment": "Pre-emerge test, greenhouse herbicide activity screening", "conditions": "pre-emerge, rated 14 days after application, 0 = no damage, 100 = complete death", "how_it_was_run": "as §1"}, "[8]": {"tested_on": "ivyleaf morningglory (Ipomoea hederacea, IPOHE)", "experiment": "Pre-emerge test, greenhouse herbicide activity screening", "conditions": "pre-emerge, rated 14 days after application, 0 = no damage, 100 = complete death", "how_it_was_run": "as §1"}, "[9]": {"tested_on": "sicklepod (Cassia obtusifolia, CASOB)", "experiment": "Pre-emerge test, greenhouse herbicide activity screening", "conditions": "pre-emerge, rated 14 days after application, 0 = no damage, 100 = complete death", "how_it_was_run": "as §1"}, "[10]": {"tested_on": "common ragweed (Ambrosia artemisizfolia L., AMBEL)", "experiment": "Pre-emerge test, greenhouse herbicide activity screening", "conditions": "pre-emerge, rated 14 days after application, 0 = no damage, 100 = complete death", "how_it_was_run": "as §1"}, "[11]": {"tested_on": "velvetleaf (Abutilon theophrasti, ABUTH)", "experiment": "Post-emerge test, greenhouse herbicide activity screening", "conditions": "phytotoxicity rating 0-100 (0 no damage, 100 complete death), 14 days after application", "how_it_was_run": "(§2)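 Compounds in acetone were track-sprayed at 187 l/ha, 15–1000 g ai/ha, onto sandy loam pots. Pre-emerge seeds were sown one day before spraying, with surface watering afterwards. Post-emerge plants were at the 2–3 leaf stage and sprayed with 0.25% v/v non-ionic surfactant. Injury was rated 0–100 at 14 days.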"}, "[12]": {"tested_on": "johnsongrass (Sorghum halepense, SORHA)", "experiment": "Post-emerge test, greenhouse herbicide activity screening", "conditions": "phytotoxicity rating 0-100 (0 no damage, 100 complete death), 14 days after application", "how_it_was_run": "as §2"}, "[13]": {"tested_on": "barnyardgrass (Echinochloa crus-galli, ECHCG)", "experiment": "Post-emerge test, greenhouse herbicide activity screening", "conditions": "phytotoxicity rating 0-100 (0 no damage, 100 complete death), 14 days after application", "how_it_was_run": "as §2"}, "[14]": {"tested_on": "redroot pigweed (Amaranthus retroflexus, AMARE)", "experiment": "Post-emerge test, greenhouse herbicide activity screening", "conditions": "phytotoxicity rating 0-100 (0 no damage, 100 complete death), 14 days after application", "how_it_was_run": "as §2"}, "[15]": {"tested_on": "large crabgrass (Digitaria sanguinalis, DIGSA)", "experiment": "Post-emerge test, greenhouse herbicide activity screening", "conditions": "phytotoxicity rating 0-100 (0 no damage, 100 complete death), 14 days after application", "how_it_was_run": "as §2"}, "[16]": {"tested_on": "lambsquarters (Chenopodium album, CHEAL)", "experiment": "Post-emerge test, greenhouse herbicide activity screening", "conditions": "phytotoxicity rating 0-100 (0 no damage, 100 complete death), 14 days after application", "how_it_was_run": "as §2"}, "[17]": {"tested_on": "ivyleaf morningglory (Ipomoea hederacea, IPOHE)", "experiment": "Post-emerge test, greenhouse herbicide activity screening", "conditions": "phytotoxicity rating 0-100 (0 no damage, 100 complete death), 14 days after application", "how_it_was_run": "as §2"}, "[18]": {"tested_on": "sicklepod (Cassia obtusifolia, CASOB)", "experiment": "Post-emerge test, greenhouse herbicide activity screening", "conditions": "phytotoxicity rating 0-100 (0 no damage, 100 complete death), 14 days after application", "how_it_was_run": "as §2"}, "[19]": {"tested_on": "common ragweed (Ambrosia artemisizfolia L., AMBEL)", "experiment": "Post-emerge test, greenhouse herbicide activity screening", "conditions": "phytotoxicity rating 0-100 (0 no damage, 100 complete death), 14 days after application", "how_it_was_run": "as §2"}, "[20]": {"tested_on": "upland rice (Oryza sp., var. Tebonnet, RICE)", "experiment": "Pre-emerge test, crop safety", "conditions": "pre-emerge, rated 14 days after application, 0 = no damage, 100 = complete death", "how_it_was_run": "(§3)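 Compounds in acetone were track-sprayed at 15-1000 g ai/ha (187 l/ha) on sandy loam pots: pre-emerge one day after seeding, post-emerge at 2-3 leaf stage with 0.25% v/v non-ionic surfactant. Phytotoxicity was rated 14 days later on a 0 (no damage) to 100 (complete death) scale.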"}, "[21]": {"tested_on": "field corn (Zea mays L., var. Dekalb 535, CORN)", "experiment": "Pre-emerge test, crop safety", "conditions": "pre-emerge, rated 14 days after application, 0 = no damage, 100 = complete death", "how_it_was_run": "as §3"}, "[22]": {"tested_on": "upland rice (Oryza sp., var. Tebonnet, RICE)", "experiment": "Post-emerge test, crop safety", "conditions": "phytotoxicity rating 0-100 (0 no damage, 100 complete death), 14 days after application", "how_it_was_run": "(§4)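 Each test used a mechanized track sprayer delivering 187 l/ha of acetone solution at 15–1000 g ai/ha. Post-emerge foliage at 2–3 leaves was treated with added 0.25% v/v non-ionic surfactant and bottom-watered only. Injury was assessed on day 14, where 100 means total kill.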"}, "[23]": {"tested_on": "field corn (Zea mays L., var. Dekalb 535, CORN)", "experiment": "Post-emerge test, crop safety", "conditions": "phytotoxicity rating 0-100 (0 no damage, 100 complete death), 14 days after application", "how_it_was_run": "as §4"}}}
{"compound": "COc1c(Cl)cc(F)c(-n2c(=O)cc(C(F)(F)F)n(C)c2=O)c1NC(=O)c1ccc(C(C)(C)C)cc1", "note": "[2-30]", "values": [{"measurement": "Pre-emerge Herbicidal Activity AMARE (phytotoxicity rating, scale 0-100)", "setting": "[1]; 63 g ai/ha", "value": 0}, {"measurement": "Pre-emerge Herbicidal Activity AMARE (phytotoxicity rating, scale 0-100)", "setting": "[1]; 250 g ai/ha", "value": 0}, {"measurement": "Pre-emerge Herbicidal Activity ABUTH (phytotoxicity rating, scale 0-100)", "setting": "[2]; 63 g ai/ha", "value": 0}, {"measurement": "Pre-emerge Herbicidal Activity ABUTH (phytotoxicity rating, scale 0-100)", "setting": "[2]; 250 g ai/ha", "value": 20}, {"measurement": "Pre-emerge Herbicidal Activity SORHA (phytotoxicity rating, scale 0-100)", "setting": "[3]; 63 g ai/ha", "value": 0}, {"measurement": "Pre-emerge Herbicidal Activity SORHA (phytotoxicity rating, scale 0-100)", "setting": "[3]; 250 g ai/ha", "value": 0}, {"measurement": "Pre-emerge Herbicidal Activity ECHCG (phytotoxicity rating, scale 0-100)", "setting": "[4]; 63 g ai/ha", "value": 0}, {"measurement": "Pre-emerge Herbicidal Activity ECHCG (phytotoxicity rating, scale 0-100)", "setting": "[4]; 250 g ai/ha", "value": 0}, {"measurement": "Pre-emerge Herbicidal Activity SETVI (phytotoxicity rating, scale 0-100)", "setting": "[5]; 63 g ai/ha", "value": 0}, {"measurement": "Pre-emerge Herbicidal Activity SETVI (phytotoxicity rating, scale 0-100)", "setting": "[5]; 250 g ai/ha", "value": 20}, {"measurement": "Pre-emerge Herbicidal Activity DIGSA (phytotoxicity rating, scale 0-100)", "setting": "[6]; 63 g ai/ha", "value": 0}, {"measurement": "Pre-emerge Herbicidal Activity DIGSA (phytotoxicity rating, scale 0-100)", "setting": "[6]; 250 g ai/ha", "value": 0}, {"measurement": "Pre-emerge Herbicidal Activity CHEAL (phytotoxicity rating, scale 0-100)", "setting": "[7]; 63 g ai/ha", "value": 0}, {"measurement": "Pre-emerge Herbicidal Activity CHEAL (phytotoxicity rating, scale 0-100)", "setting": "[7]; 250 g ai/ha", "value": 70}, {"measurement": "Pre-emerge Herbicidal Activity IPOHE (phytotoxicity rating, scale 0-100)", "setting": "[8]; 63 g ai/ha", "value": 0}, {"measurement": "Pre-emerge Herbicidal Activity IPOHE (phytotoxicity rating, scale 0-100)", "setting": "[8]; 250 g ai/ha", "value": 0}, {"measurement": "Pre-emerge Herbicidal Activity CASOB (phytotoxicity rating, scale 0-100)", "setting": "[9]; 63 g ai/ha", "value": 0}, {"measurement": "Pre-emerge Herbicidal Activity CASOB (phytotoxicity rating, scale 0-100)", "setting": "[9]; 250 g ai/ha", "value": 0}, {"measurement": "Pre-emerge Herbicidal Activity AMBEL (phytotoxicity rating, scale 0-100)", "setting": "[10]; 63 g ai/ha", "value": 0}, {"measurement": "Pre-emerge Herbicidal Activity AMBEL (phytotoxicity rating, scale 0-100)", "setting": "[10]; 250 g ai/ha", "value": 0}, {"measurement": "Post-emerge Herbicidal Activity ABUTH", "setting": "[11]; 63 g ai/ha", "value": 30}, {"measurement": "Post-emerge Herbicidal Activity ABUTH", "setting": "[11]; 250 g ai/ha", "value": 70}, {"measurement": "Post-emerge Herbicidal Activity SORHA", "setting": "[12]; 63 g ai/ha", "value": 0}, {"measurement": "Post-emerge Herbicidal Activity SORHA", "setting": "[12]; 250 g ai/ha", "value": 0}, {"measurement": "Post-emerge Herbicidal Activity ECHCG", "setting": "[13]; 63 g ai/ha", "value": 0}, {"measurement": "Post-emerge Herbicidal Activity ECHCG", "setting": "[13]; 250 g ai/ha", "value": 0}, {"measurement": "Post-emerge Herbicidal Activity AMARE", "setting": "[14]; 63 g ai/ha", "value": 0}, {"measurement": "Post-emerge Herbicidal Activity AMARE", "setting": "[14]; 250 g ai/ha", "value": 20}, {"measurement": "Post-emerge Herbicidal Activity DIGSA", "setting": "[15]; 63 g ai/ha", "value": 0}, {"measurement": "Post-emerge Herbicidal Activity DIGSA", "setting": "[15]; 250 g ai/ha", "value": 0}, {"measurement": "Post-emerge Herbicidal Activity CHEAL", "setting": "[16]; 63 g ai/ha", "value": 0}, {"measurement": "Post-emerge Herbicidal Activity CHEAL", "setting": "[16]; 250 g ai/ha", "value": 50}, {"measurement": "Post-emerge Herbicidal Activity IPOHE", "setting": "[17]; 63 g ai/ha", "value": 0}, {"measurement": "Post-emerge Herbicidal Activity IPOHE", "setting": "[17]; 250 g ai/ha", "value": 20}, {"measurement": "Post-emerge Herbicidal Activity CASOB", "setting": "[18]; 63 g ai/ha", "value": 0}, {"measurement": "Post-emerge Herbicidal Activity CASOB", "setting": "[18]; 250 g ai/ha", "value": 0}, {"measurement": "Post-emerge Herbicidal Activity AMBEL", "setting": "[19]; 63 g ai/ha", "value": 0}, {"measurement": "Post-emerge Herbicidal Activity AMBEL", "setting": "[19]; 250 g ai/ha", "value": 10}, {"measurement": "Pre-emerge crop damage RICE (phytotoxicity rating, scale 0-100)", "setting": "[20]; 63 g ai/ha", "value": 0}, {"measurement": "Pre-emerge crop damage RICE (phytotoxicity rating, scale 0-100)", "setting": "[20]; 250 g ai/ha", "value": 0}, {"measurement": "Pre-emerge crop damage CORN (phytotoxicity rating, scale 0-100)", "setting": "[21]; 63 g ai/ha", "value": 0}, {"measurement": "Pre-emerge crop damage CORN (phytotoxicity rating, scale 0-100)", "setting": "[21]; 250 g ai/ha", "value": 0}, {"measurement": "Post-emerge Herbicidal Activity RICE (crop damage)", "setting": "[22]; 63 g ai/ha", "value": 0}, {"measurement": "Post-emerge Herbicidal Activity RICE (crop damage)", "setting": "[22]; 250 g ai/ha", "value": 0}, {"measurement": "Post-emerge Herbicidal Activity CORN (crop damage)", "setting": "[23]; 63 g ai/ha", "value": 0}, {"measurement": "Post-emerge Herbicidal Activity CORN (crop damage)", "setting": "[23]; 250 g ai/ha", "value": 0}]}
